In patent publication US11524012B1, “Quinolone analogs and their salts, compositions, and method for their use” (Senhwa Biosciences, Inc., priority 2018, dated 2022):

Test: Pharmacokinetic parameters in preclinical species
Format: in vivo, mice
Conditions: Mouse (ICR), IV, 5 mg/kg, mean of 3 animals

Work on `Cc1cnc(CNC(=O)c2c(=O)c3ccc(N4CCCN(C)CC4)nc3n3c2sc2ccccc23)cn1` [Compound I, 2-(4-Methyl-[1,4]diazepan-1-yl)-5-oxo-5H-7-thia-1,11b-diaza-benzo[c]fluorene-6-carboxylic acid (5-methyl-pyrazin-2-ylmethyl)-amide] yielded a CIs of 0.483 mL/min/kg, a Cmax (plasma) of 34300 ng/mL and a half-life (plasma) of 6 h. It also gave an AUC(0-t) (plasma, read-out: AUC24hr) of 186 µg·h/mL and a Vd (plasma, read-out: Vss) of 0.145 L/kg.
